According to the NIST ThermoML archive (doi:10.1021/je049671t):

Test: xn = mol fraction of the nth substance listed
Settings: Liquid, Vibrating tube method

CC(C)C [2-methylpropane] + CCC
Settings	mass density [kg/m3]
300 K, 4958.9 kPa, x2 = 0.499	533.34
300 K, 4994.5 kPa, x2 = 0.75	518.46
300 K, 5016.4 kPa, x2 = 0.25	547.38
300 K, 5458.6 kPa, x2 = 0.499	534.46
300 K, 5458.9 kPa, x2 = 0.75	519.57
300 K, 5511.8 kPa, x2 = 0.25	548.38
300 K, 5960.9 kPa, x2 = 0.75	520.74
300 K, 5975.7 kPa, x2 = 0.499	535.56
300 K, 6025.1 kPa, x2 = 0.25	549.47
300 K, 6473 kPa, x2 = 0.75	521.92
300 K, 6516 kPa, x2 = 0.25	550.41
300 K, 6517.3 kPa, x2 = 0.499	536.72
300 K, 6954.6 kPa, x2 = 0.75	522.99
300 K, 6957 kPa, x2 = 0.25	551.23
300 K, 6984.7 kPa, x2 = 0.499	537.69
320 K, 1020.5 kPa, x2 = 0.25	509.69
320 K, 1325.3 kPa, x2 = 0.75	475.52
320 K, 1461.2 kPa, x2 = 0.499	494.61
320 K, 1500 kPa, x2 = 0.25	511.28
320 K, 1505.3 kPa, x2 = 0.75	476.31
320 K, 2021.1 kPa, x2 = 0.75	478.51
320 K, 2023.3 kPa, x2 = 0.25	512.94
320 K, 2041.5 kPa, x2 = 0.499	496.75
320 K, 2488.7 kPa, x2 = 0.499	498.31
320 K, 2517.7 kPa, x2 = 0.75	480.54
320 K, 2522.2 kPa, x2 = 0.25	514.49
320 K, 3007.6 kPa, x2 = 0.25	515.95
320 K, 3023.9 kPa, x2 = 0.499	500.12
320 K, 3025.6 kPa, x2 = 0.75	482.53
320 K, 3506.4 kPa, x2 = 0.75	484.35
320 K, 3508.1 kPa, x2 = 0.25	517.4
320 K, 3550 kPa, x2 = 0.499	501.84
320 K, 3994.2 kPa, x2 = 0.75	486.12
320 K, 4022.9 kPa, x2 = 0.25	518.87
320 K, 4037.4 kPa, x2 = 0.499	503.38
320 K, 4507.7 kPa, x2 = 0.75	487.92
320 K, 4522.1 kPa, x2 = 0.25	520.26
320 K, 4530.4 kPa, x2 = 0.499	504.9
320 K, 4954.2 kPa, x2 = 0.499	506.17
320 K, 4968 kPa, x2 = 0.75	489.5
320 K, 4990.1 kPa, x2 = 0.25	521.53
320 K, 5517.3 kPa, x2 = 0.25	522.93
320 K, 5527.2 kPa, x2 = 0.75	491.33
320 K, 5545.8 kPa, x2 = 0.499	507.9
320 K, 5997.3 kPa, x2 = 0.499	509.24
320 K, 6001.8 kPa, x2 = 0.25	524.19
320 K, 6003.6 kPa, x2 = 0.75	492.85
320 K, 6479.8 kPa, x2 = 0.25	525.39
320 K, 6495 kPa, x2 = 0.75	494.38
320 K, 6524.9 kPa, x2 = 0.499	510.74
320 K, 6930.3 kPa, x2 = 0.499	511.85
320 K, 6964.1 kPa, x2 = 0.25	526.6
320 K, 7044.7 kPa, x2 = 0.75	496.03
340 K, 1514.2 kPa, x2 = 0.25	479.11
340 K, 2002.6 kPa, x2 = 0.499	459.37
340 K, 2028 kPa, x2 = 0.25	481.6
340 K, 2456 kPa, x2 = 0.499	461.99
340 K, 2489.8 kPa, x2 = 0.75	441.74
340 K, 2523.8 kPa, x2 = 0.25	483.92
340 K, 2981.6 kPa, x2 = 0.499	464.85
340 K, 3027.2 kPa, x2 = 0.25	486.13
340 K, 3027.4 kPa, x2 = 0.75	445.39
340 K, 3485.7 kPa, x2 = 0.499	467.47
340 K, 3510.1 kPa, x2 = 0.75	448.46
340 K, 3532.9 kPa, x2 = 0.25	488.26
340 K, 3969 kPa, x2 = 0.75	451.17
340 K, 4012.5 kPa, x2 = 0.499	470.04

mass density [kg/m3]
Settings	x2 = 0.25	x2 = 0.499	x2 = 0.75
300 K	537.31	522.96	507.33
320 K	509.12	491.75	475.51
